Measurements taken from patent US20220365087A1, “METHOD FOR ACQUIRING DATA FOR DISTINGUISHING PRESENCE OF CANCER CELLS AND/OR DISTINGUISHING ANTICANCER DRUG RESISTANCE, METHOD FOR ACQUIRING PREDICTION DATA, USE OF DISTINCTION MARKER IN SAME, AND DISTINGUISHING KIT” (KEIO UNIVERSITY, priority 2019, published 2022).

How the values were obtained:
[1] = tested on: plasmid (pcDNA3.1 empty vector) double strand DNA; experiment: Gel shift assay of DNA supercoiling disturbance by cisplatin; assay type: biochemical; conditions: 37° C. for 60 minutes; for effect on disturbance of double strand DNA supercoiling by cisplatin (CDDP): preincubation of plasmid with Na2Sn, then 60 μM CDDP
Procedure: To quantify the degree of DNA intercalation by cisplatin (CDDP) that disturbs DNA supercoiling, 1 μg of plasmid (pcDNA3.1 empty vector, #V79020, Invitrogen) was mixed with a predetermined concentration of Na2Sn (n=an integer of 1 to 4), and preincubated in 10 mM phosphate-buffered saline (PBS, pH6.0) at room temperature for 5 minutes. Then, a CDDP solution was added to the solution to obtain a final concentration of 60 μM. Thereafter, the mixed solution was incubated at 37° C. for 60 minutes. After the incubation, the reaction products in the mixed solution were separated by electrophoresis using 1% agarose gel for determination of the DNA secondary structure.
It was previously shown that cisplatin can disturb DNA supercoiling by being intercalated between bases of double-stranded DNA structures and causing structural changes (Non-patent Document 4). In this study, the present inventors determined in vitro that cisplatin induced change in the bulk molecular volume of supercoiling DNA, and the bulk molecular volume was recovered by addition of polysulfide (FIG. 3).
This can be inferred because of the enhanced reducing power of the polysulfide with the increase in the number of sulfur atoms.

[2] = tested on: ovarian serous carcinoma (SC); experiment: Effectiveness of the anticancer drug in ovarian serous carcinoma; assay type: in vivo
[3] = tested on: ovarian clear cell carcinoma (CCC); experiment: Effectiveness of the anticancer drug in ovarian clear cell carcinoma; assay type: in vivo

Structure (SMILES): [Na+].[Na+].[S-][S-] [Na2S2]
- effect on disturbance of double strand DNA supercoiling by cisplatin (CDDP) [1]: attenuated

Structure (SMILES): [Na+].[Na+].[S-]S[S-] [Na2S3]
- effect on disturbance of double strand DNA supercoiling by cisplatin (CDDP) [1]: attenuated

Structure (SMILES): [Na+].[Na+].[S-]SS[S-] [Na2S4]
- effect on disturbance of double strand DNA supercoiling by cisplatin (CDDP) [1]: attenuated

Structure (SMILES): [Na+].[Na+].[S-2] [Na2S]
- effect on disturbance of double strand DNA supercoiling by cisplatin (CDDP) [1]: attenuated

Structure (SMILES): N.N.[Cl][Pt][Cl] [cisplatin]
- effectiveness as an anticancer drug [2]: more effective
- effectiveness as an anticancer drug [3]: less effective
- change in the bulk molecular volume of supercoiling double strand DNA ([1]; CDDP final concentration 60 μM, 1 μg plasmid, 1% agarose gel): increased the bulk molecular volume of double strand DNA
